Assay results reported in publication PMC8379219 (Nature Communications, 2021).
Where “and” joins values, the source holds several entries; their conditions need not be identical. Equal entries are not always repeated. Entries after “also recorded” stand apart in the source; their conditions may differ. Where two headings read alike, the source gives them in different places.

What was measured:
SERT [1] = target: T1, SERT (Homo sapiens, UniProt P31645); experiment: [3H]IMI dissociation from SERT by VLZ in absence or presence of 10 µM Fab fragment; assay type: binding; conditions: for Fab fragment VLZ allostery w [3H]IMI Dissoc (Suppl. Fig 3A): ctrl = 1
T1 construct: expressed in transfected cells; host or cells: membranes of COS-7 cells, transient transfection

SERT [2] = target: T1, SERT; experiment: [3H]S-CIT dissociation from SERT by VLZ in absence or presence of 10 µM Fab fragment; assay type: binding
SERT WT [3] = target: T2, SERT WT (Homo sapiens, UniProt P31645)
SERT Y95F = SERT Y95F (Homo sapiens, UniProt P31645, Y95F)
SERT S438T = SERT S438T (Homo sapiens, UniProt P31645, S438T)
SERT WT [4] = target: T2, SERT WT; remark: listed apart in the source
SERT WT [5] = target: T2, SERT WT; conditions: Log[VLZ] (M) -4; ctrl = 1; replicates
SERT WT [6] = target: T2, SERT WT; experiment: [3H]IMI dissociation rate assay (allosteric potency), COS-7 membranes; assay type: binding; set-up: expressed in transfected cells; host or cells: COS-7;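 note: radioligand pre-bound 30 min at room temperature to equilibrium, then dissociation followed over 5–70 min, ended by filtration through GF/B filters, at least three independent experiments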

Chain of SERT S438T (P31645 whole entry S438T): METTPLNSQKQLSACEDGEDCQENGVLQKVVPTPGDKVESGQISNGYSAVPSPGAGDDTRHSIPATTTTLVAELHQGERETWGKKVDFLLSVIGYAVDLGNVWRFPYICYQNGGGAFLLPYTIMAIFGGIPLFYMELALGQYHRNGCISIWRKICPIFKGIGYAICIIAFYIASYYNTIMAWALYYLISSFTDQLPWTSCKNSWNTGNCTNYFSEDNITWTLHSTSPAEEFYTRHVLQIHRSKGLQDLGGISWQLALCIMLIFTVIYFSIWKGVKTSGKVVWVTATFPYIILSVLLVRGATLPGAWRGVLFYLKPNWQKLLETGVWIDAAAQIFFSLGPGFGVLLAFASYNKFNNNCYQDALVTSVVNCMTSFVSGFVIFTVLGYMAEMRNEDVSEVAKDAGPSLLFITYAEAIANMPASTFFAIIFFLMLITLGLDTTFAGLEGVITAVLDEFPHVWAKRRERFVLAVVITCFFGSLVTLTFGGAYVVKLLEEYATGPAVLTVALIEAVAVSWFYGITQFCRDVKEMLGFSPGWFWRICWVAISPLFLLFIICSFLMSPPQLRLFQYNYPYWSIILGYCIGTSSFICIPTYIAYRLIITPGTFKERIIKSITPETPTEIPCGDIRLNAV
Chain of SERT Y95F (P31645 whole entry Y95F): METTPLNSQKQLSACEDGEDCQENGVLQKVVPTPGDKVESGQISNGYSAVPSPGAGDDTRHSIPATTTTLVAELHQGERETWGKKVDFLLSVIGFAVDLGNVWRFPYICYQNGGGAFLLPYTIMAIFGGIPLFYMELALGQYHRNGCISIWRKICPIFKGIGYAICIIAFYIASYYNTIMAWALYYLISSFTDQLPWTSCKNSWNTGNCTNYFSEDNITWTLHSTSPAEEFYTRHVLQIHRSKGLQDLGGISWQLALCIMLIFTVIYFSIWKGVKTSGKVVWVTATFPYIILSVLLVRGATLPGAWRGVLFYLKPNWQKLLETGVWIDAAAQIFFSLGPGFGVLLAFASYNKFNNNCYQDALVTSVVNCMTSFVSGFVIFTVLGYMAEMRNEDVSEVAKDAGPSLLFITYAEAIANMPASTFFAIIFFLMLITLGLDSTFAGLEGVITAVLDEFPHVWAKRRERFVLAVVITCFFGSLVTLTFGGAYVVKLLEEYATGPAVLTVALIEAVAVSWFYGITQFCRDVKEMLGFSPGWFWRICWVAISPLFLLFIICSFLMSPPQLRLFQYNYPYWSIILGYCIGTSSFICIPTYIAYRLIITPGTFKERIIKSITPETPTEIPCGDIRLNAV
T2 sequence (P31645 whole entry): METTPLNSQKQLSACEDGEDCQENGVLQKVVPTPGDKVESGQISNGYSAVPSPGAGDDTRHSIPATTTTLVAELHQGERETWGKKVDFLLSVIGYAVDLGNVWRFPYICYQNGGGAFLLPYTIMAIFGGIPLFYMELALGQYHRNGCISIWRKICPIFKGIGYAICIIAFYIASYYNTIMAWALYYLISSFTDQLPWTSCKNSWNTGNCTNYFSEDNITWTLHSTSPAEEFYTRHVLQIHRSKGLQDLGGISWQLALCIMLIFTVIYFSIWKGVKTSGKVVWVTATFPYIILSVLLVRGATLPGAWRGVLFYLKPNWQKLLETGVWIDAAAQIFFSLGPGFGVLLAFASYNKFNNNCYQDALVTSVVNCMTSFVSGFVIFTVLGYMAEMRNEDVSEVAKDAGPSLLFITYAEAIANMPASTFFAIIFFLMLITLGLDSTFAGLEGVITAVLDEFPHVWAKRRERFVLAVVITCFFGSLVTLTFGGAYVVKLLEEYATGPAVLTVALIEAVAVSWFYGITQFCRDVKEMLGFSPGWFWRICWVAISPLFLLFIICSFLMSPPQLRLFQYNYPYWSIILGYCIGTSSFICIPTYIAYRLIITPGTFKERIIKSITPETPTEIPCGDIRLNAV
T1 sequence (P31645 whole entry, the tested form may be a part): as the sequence (P31645 whole entry) above

Fab fragment VLZ allostery w [3H]IMI Dissoc (Suppl. Fig 3A) (SERT [1]; SERT WT, Log[VLZ] (M) -6): 0 | Fab fragment VLZ allostery w [3H]IMI Dissoc (Suppl. Fig 3A) (SERT [1]; SERT WT, Log[VLZ] (M) -7.34): 0.0851 | Fab fragment VLZ allostery w [3H]IMI Dissoc (Suppl. Fig 3A) (SERT [1]; SERT WT, Log[VLZ] (M) -7.817): 0.2902 | Fab fragment VLZ allostery w [3H]IMI Dissoc (Suppl. Fig 3A) (SERT [1]; SERT WT, Log[VLZ] (M) -8.294): 0.4378 | Fab fragment VLZ allostery w [3H]IMI Dissoc (Suppl. Fig 3A) (SERT [1]; w. Fab fragment, Log[VLZ] (M) -6): 0 | Fab fragment VLZ allostery w [3H]IMI Dissoc (Suppl. Fig 3A) (SERT [1]; w. Fab fragment, Log[VLZ] (M) -7.34): 0.077 | Fab fragment VLZ allostery w [3H]IMI Dissoc (Suppl. Fig 3A) (SERT [1]; w. Fab fragment, Log[VLZ] (M) -7.817): 0.2744 | Fab fragment VLZ allostery w [3H]IMI Dissoc (Suppl. Fig 3A) (SERT [1]; w. Fab fragment, Log[VLZ] (M) -8.294): 0.5049 | Fab fragment VLZ allostery w [3H]S-CIT Dissoc (Suppl. Fig 3B) (SERT [2]; SERT WT, Log[VLZ] (M) -4, ctrl 0.9997): 0 | Fab fragment VLZ allostery w [3H]S-CIT Dissoc (Suppl. Fig 3B) (SERT [2]; SERT WT, Log[VLZ] (M) -6.046, ctrl 0.9997): 0.25 | Fab fragment VLZ allostery w [3H]S-CIT Dissoc (Suppl. Fig 3B) (SERT [2]; SERT WT, Log[VLZ] (M) -6.523, ctrl 0.9997): 0.5086 | Fab fragment VLZ allostery w [3H]S-CIT Dissoc (Suppl. Fig 3B) (SERT [2]; SERT WT, Log[VLZ] (M) -7, ctrl 0.9997): 0.7481 | Fab fragment VLZ allostery w [3H]S-CIT Dissoc (Suppl. Fig 3B) (SERT [2]; w. Fab fragment, Log[VLZ] (M) -6.046, ctrl 0.9993): 0.2288 | Fab fragment VLZ allostery w [3H]S-CIT Dissoc (Suppl. Fig 3B) (SERT [2]; w. Fab fragment, Log[VLZ] (M) -6.523, ctrl 0.9993): 0.3777 | Fab fragment VLZ allostery w [3H]S-CIT Dissoc (Suppl. Fig 3B) (SERT [2]; w. Fab fragment, Log[VLZ] (M) -7, ctrl 0.9993): 0.7313 | Hill slope for inhibition of [3H]5-HT uptake (SERT WT [3]): ~ 2 | [3H]5-HT uptake inhibition (SERT WT [3]; Log[VLZ] (M) -7.5): 2.2056 and 2.462 and 3.034 and 2.528 | [3H]5-HT uptake inhibition (SERT WT [3]; Log[VLZ] (M) -9.5): 92.7238 | [3H]5-HT uptake inhibition (SERT WT [3]; Log[VLZ] (M) -10): 95.9437 | [3H]5-HT uptake inhibition (SERT WT [3]; Log[VLZ] (M) -10.5): 103.235 | [3H]5-HT uptake inhibition (SERT WT [3]; Log[VLZ] (M) -11): 103.321 and 85.9044 | [3H]5-HT uptake inhibition S1 Mutants (SERT Y95F; Log[VLZ] (M) -7.5): 2.147 and 2.505 and 1.589 and 2.318 | [3H]5-HT uptake inhibition S1 Mutants (SERT Y95F; Log[VLZ] (M) -8): 11.0058 and 6.5 and 7.569 | [3H]5-HT uptake inhibition S1 Mutants (SERT Y95F; Log[VLZ] (M) -9.5): 92.5116 and 89.0566 | [3H]5-HT uptake inhibition S1 Mutants (SERT Y95F; Log[VLZ] (M) -11): 98.0826 and 93.7606 | [3H]5-HT uptake inhibition S1 Mutants (SERT S438T; Log[VLZ] (M) -9.5): 80.1053 | [3H]5-HT uptake inhibition S1 Mutants (SERT S438T; Log[VLZ] (M) -10): 87.6994 and 103.115 and 83.4593 | [3H]5-HT uptake inhibition S1 Mutants (SERT S438T; Log[VLZ] (M) -11): 102.782 and 106.151 and 94.1598 | [3H]5-HT uptake inhibition S1 Mutants (SERT S438T; Log[VLZ] (M) -12): 100.15 and 89.7676 and 98.9977 | [3H]S-CIT binding inhibition (SERT WT [4]; Log[VLZ] (M) -6): 6.1374 and 6.267 and 9.306 and 7.924 | VLZ Allosteric Potency SERT WT, [3H]S-CIT dissociation (Fig. 2C) (SERT WT [5]): 0 | [3H]IMI dissociation (Fig. 2B) (SERT WT [6]; 0.5 nM, time 5 min): 98.1806 | [3H]IMI dissociation (Fig. 2B) (SERT WT [6]; 0.5 nM, time 10 min): 95.2605 | [3H]IMI dissociation (Fig. 2B) (SERT WT [6]; 0.5 nM, time 15 min): 95.3158 | [3H]IMI dissociation (Fig. 2B) (SERT WT [6]; 0.5 nM, time 20 min): 91.8569 | [3H]IMI dissociation (Fig. 2B) (SERT WT [6]; 0.5 nM, time 30 min): 86.7456 | [3H]IMI dissociation (Fig. 2B) (SERT WT [6]; 0.5 nM, time 50 min): 81.092 | [3H]IMI dissociation (Fig. 2B) (SERT WT [6]; 0.5 nM, time 70 min): 71.6978 | [3H]IMI dissociation (Fig. 2B) (SERT WT [6]; 1.6 nM, time 5 min): 98.6368 | [3H]IMI dissociation (Fig. 2B) (SERT WT [6]; 1.6 nM, time 10 min): 97.1109 | [3H]IMI dissociation (Fig. 2B) (SERT WT [6]; 1.6 nM, time 15 min): 94.6142 | [3H]IMI dissociation (Fig. 2B) (SERT WT [6]; 1.6 nM, time 20 min): 91.8363
Structure (SMILES): N#Cc1ccc2[nH]cc(CCCCN3CCN(c4ccc5oc(C(N)=O)cc5c4)CC3)c2c1 [VLZ, Vilazodone]
Effect of Fab fragment on allosteric potency of VLZ ([3H]IMI dissociation) (SERT [1]; 10 µM Fab, n = 1): no apparent effect; also recorded: unaffected | Effect of Fab fragment on allosteric potency of VLZ ([3H]S-CIT dissociation) (SERT [2]; 10 µM Fab, n = 1): no apparent effect; also recorded: unaffected | [3H]5-HT uptake inhibition S1 Mutants (SERT Y95F; Log[VLZ] (M) -8.5): 23.4424 and 34.8885 and 39.8853 and 24.3563 | [3H]5-HT uptake inhibition S1 Mutants (SERT Y95F; Log[VLZ] (M) -9): 48.3194 and 75.9314 and 68.9865 and 51.2725 | [3H]5-HT uptake inhibition S1 Mutants (SERT Y95F; Log[VLZ] (M) -10): 97.9526 and 106.373 and 93.3855 and 88.0755 | [3H]5-HT uptake inhibition S1 Mutants (SERT Y95F; Log[VLZ] (M) -10.5): 100.1 and 92.5093 and 97.0473 and 106.269 | [3H]5-HT uptake inhibition S1 Mutants (SERT Y95F; Log[VLZ] (M) -12): 96.3138 and 97.3606 and 96.312 and 100.229 | [3H]5-HT uptake inhibition S1 Mutants (SERT S438T; Log[VLZ] (M) -8): 14.775 and 11.8665 and 12.0164 and 12.3243 | [3H]5-HT uptake inhibition S1 Mutants (SERT S438T; Log[VLZ] (M) -8.5): 41.3444 and 41.8738 and 54.9583 and 30.416 | [3H]5-HT uptake inhibition S1 Mutants (SERT S438T; Log[VLZ] (M) -9): 69.6167 and 63.3209 and 84.8416 and 54.068 | [3H]5-HT uptake inhibition S1 Mutants (SERT S438T; Log[VLZ] (M) -10.5): 92.1556 and 93.2014 and 102.815 and 97.2843 | [3H]S-CIT binding inhibition (SERT WT [4]; Log[VLZ] (M) -7): 15.0029 and 12.5666 and 12.6935 and 13.2177 and 16.0372 and 22.3569 | [3H]S-CIT binding inhibition (SERT WT [4]; Log[VLZ] (M) -8): 20.242 and 17.0122 and 17.5714 and 27.4498 and 22.8662 | [3H]S-CIT binding inhibition (SERT WT [4]; Log[VLZ] (M) -9.5): 93.155 and 87.0219 and 91.9361 and 94.5429 | [3H]S-CIT binding inhibition (SERT WT [4]; Log[VLZ] (M) -10): 90.7785 and 92.3382 and 88.1671 and 94.4965 | [3H]S-CIT binding inhibition (SERT WT [4]; Log[VLZ] (M) -11): 106.327 and 106.337 and 110.336 and 113.218 and 118.473 and 111.36 | [3H]S-CIT binding inhibition (SERT WT [4]; Log[VLZ] (M) -12): 92.524 and 93.4609 and 92.9453 and 86.9585 and 90.0353
